This is an account of results in patent publication US20250163057A1, “DCN-1 MODULATING COMPOUNDS AND METHODS OF USE THEREOF” (Cellarity, Inc., priority 2023, published 2025).

SMILES strings stand for the structures. Where two headings read alike, the source gives them in different places.

For orientation: EC50 means the midpoint of the concentration-response curve. One may read the IC50 as the midpoint of a concentration-inhibition curve.

The subject of test [1] is fetal hemoglobin gene HBG1. Briefly: HBG1 Nanostring Assay in CD34+ HSPC erythroid differentiation culture. The format is cell-based, human. The note with it: for EC50: HBG1 induction, Day10 of erythroid differentiation; for Nanostring Ymax obs (%): relative to a control compound (C1). In short, it runs like this:
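HBG1 counts came from direct nCounter hybridization (67° C, 22 h) of day-10 lysates, normalized to ERCC positive controls and a housekeeping gene, giving EC50 and Ymax versus a reference compound. Compounds in 0.1% DMSO were present from day −2 while cells underwent EPO/SCF/IL-3 erythroid differentiation, with IL-3 dropped at day 7, at 37° C.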

The target of test [2] is DCN1 (DCUND1) protein PONY domain (Homo sapiens (Human), UniProt Q96GG9). Briefly: TR-FRET assay, DCN1 binding with FAM-labeled probe. A digest of the protocol:
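TR-FRET ratio (Tb-DCN1 to FAM-probe) read at 1, 5 and 24 hrs after compound addition. Protein: recombinant PONY domain from E. coli, biotinylated and coupled to streptavidin terbium. Either 5 nM DCN1 with 20 nM FAM-probe, or 0.31 nM DCN1 with 100 nM FAM-labelled plus 800 nM unlabelled probe.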
On the technique in general: TR-FRET usually uses a lanthanide donor and a delayed reading to cut background.

Where [3] appears, read: 24 hr after treatment with compound, read-out: TR FRET IC50 24 hr.
Where [4] appears, read: read-out: TR FRET IC50 1 hr, 1 hr after treatment with compound.
The mark [5] stands for this setting: TR FRET IC50 1 hr (nM), 1 hr after treatment with compound.

DCN1 (DCUND1) protein PONY domain, sequence (Q96GG9 60-248): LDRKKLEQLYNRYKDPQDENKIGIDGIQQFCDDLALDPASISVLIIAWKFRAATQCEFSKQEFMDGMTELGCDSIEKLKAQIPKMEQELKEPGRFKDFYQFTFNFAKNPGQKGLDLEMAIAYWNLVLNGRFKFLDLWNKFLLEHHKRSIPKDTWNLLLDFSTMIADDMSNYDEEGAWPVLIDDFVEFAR

Take `CCN1C(=O)[C@@H](NC(=O)c2cccc(C(F)(F)F)c2)[C@@H](c2ccc(F)cc2)c2c(CNC(=O)/C=C/C(=O)OC)nn(-c3ccccc3)c21` (racemic) [Compound I-3]: the EC50 in test [1] (Homo sapiens, 240 h) is no more than 100 nM. In addition, in test [1], the “Nanostring Ymax obs (%)” value is reported as “+++ (Nanostring Ymax greater than 100.0)”. Besides, the half-maximal inhibitory concentration (IC50) in test [2] (setting [3]) and in test [2] (setting [4]) was no more than 200 nM throughout.
The compound `CCN1C(=O)[C@@H](NC(=O)c2cccc(C(F)(F)F)c2)[C@@H](C2CC2)c2c(C(=O)N3CC[C@H](OC)[C@H]3C#N)nn(C3CCOCC3)c21` [Compound I-418] had an EC50 in test [1] (Homo sapiens, 240 h) of no more than 100 nM. Further, the “Nanostring Ymax obs (%)” value in test [1] is “+++ (Nanostring Ymax greater than 100.0)”. In addition, the IC50 in test [2] (setting [3]) and in test [2] (setting [4]) was no more than 200 nM each time.
In test [1] (Homo sapiens, 240 h), `CCc1cccc(C(=O)N[C@@H]2C(=O)N(CC)c3c(c(C(=O)N4[C@H](C#N)C[C@H]5C[C@H]54)nn3C3CCOCC3)[C@@H]2C2CC2)c1` [Compound I-552, N-((4S,5S)-3-((1R,3S,5R)-3-cyano-2-azabicyclo[3.1.0]hexane-2-carbonyl)-4-cyclopropyl-7-ethyl-6-oxo-1-(tetrahydro-2H-pyran-4-yl)-4,5,6,7-tetrahydro-1H-pyrazolo[3,4-b]pyridin-5-yl)-3-ethylbenzamide] registered an EC50 of no more than 100 nM. The “Nanostring Ymax obs (%)” value in test [1] is “+++ (Nanostring Ymax greater than 100.0)”. The IC50 in test [2] (setting [3]) and in test [2] (setting [4]) was no more than 200 nM each time.
The compound `CCN1C(=O)[C@@H](NC(=O)c2cccc(C(F)(F)F)c2)[C@@H](C2CC2)c2c(C(=O)N3C[C@H](OC)C[C@H]3C#N)nn(C3CCOCC3)c21` [Compound I-377] yielded an EC50 in test [1] (Homo sapiens, 240 h) of no more than 100 nM. For the same compound, the “Nanostring Ymax obs (%)” value in test [1] is listed as “+++ (Nanostring Ymax greater than 100.0)”. In addition, the IC50 in test [2] (setting [3]) and in test [2] (setting [4]) was no more than 200 nM throughout.
Compound `CCN1C(=O)[C@@H](NC(=O)c2cccc(C(F)(F)F)c2)[C@@H](c2ccc(F)cc2)c2c(C(=O)N(C)[C@H](C#N)CCN(C)C)nn(C3CCOCC3)c21` [Compound I-370] came in with a half-maximal effective concentration (EC50) in test [1] (Homo sapiens, 240 h) of no more than 100 nM. For the same compound, the “Nanostring Ymax obs (%)” value in test [1] is on record as “+++ (Nanostring Ymax greater than 100.0)”. For the same compound, the IC50 in test [2] (setting [3]) and in test [2] (setting [4]) was no more than 200 nM in each case.
The compound `CCN1C(=O)[C@@H](NC(=O)c2cccc(C(F)(F)F)c2)[C@@H](c2ccc(F)cc2)c2c(C(=O)N3CCC[C@H]3C#N)nn(-c3ccccc3)c21` [Compound I-278] returned an EC50 in test [1] (Homo sapiens, 240 h) of no more than 100 nM. In addition, in test [1], the “Nanostring Ymax obs (%)” value is on record as “+++ (Nanostring Ymax greater than 100.0)”. The values for the IC50 in test [2] (setting [3]) and in test [2] (setting [5]) were no more than 200 nM and 200 to 1000 nM, respectively.
Consider `CCN1C(=O)[C@@H](NC(=O)c2cccc(C(F)(F)F)c2)[C@@H](c2ccc(F)cc2)c2c(C(=O)N3CCNC[C@H]3C#N)nn(C3CCOCC3)c21` [Compound I-363, N-((4S,5S)-3-((S)-2-cyanopiperazine-1-carbonyl)-7-ethyl-4-(4-fluorophenyl)-6-oxo-1-(tetrahydro-2H-pyran-4-yl)-4,5,6,7-tetrahydro-1H-pyrazolo[3,4-b]pyridin-5-yl)-3-(trifluoromethyl)benzamide], for which the EC50 in test [1] (Homo sapiens, 240 h) is no more than 100 nM. In test [1], the “Nanostring Ymax obs (%)” value is listed as “+++ (Nanostring Ymax greater than 100.0)”. Further, the IC50 in test [2] (setting [3]) and in test [2] (setting [4]) was no more than 200 nM each time.
`C=C(CN1CCC1)C(=O)NCc1nn(-c2ccccc2)c2c1[C@H](c1ccc(F)cc1)[C@H](NC(=O)c1cccc(C(F)(F)F)c1)C(=O)N2CC` (racemic) [Compound I-49, rac-N-((4R,5R)-3-((2-(azetidin-1-ylmethyl)acrylamido)methyl)-7-ethyl-4-(4-fluorophenyl)-6-oxo-1-phenyl-4,5,6,7-tetrahydro-1H-pyrazolo[3,4-b]pyridin-5-yl)-3-(trifluoromethyl)benzamide]: the “Nanostring Ymax obs (%)” value in test [1] is “++ (Nanostring Ymax greater than 50.0 and less than or equal to 100.0)”. Besides, the half-maximal inhibitory concentration (IC50) in test [2] (setting [3]) and in test [2] (setting [5]) was no more than 200 nM each time.
With `CCN1C(=O)[C@@H](NC(=O)c2cccc(C(F)(F)F)c2)[C@@H](c2ccc(F)cc2)c2c(C(=O)N3CCC[C@H]3C#N)nn(-c3ccccc3)c21` (mixture of isomers) [Compound I-34], the “Nanostring Ymax obs (%)” value in test [1] is “++ (Nanostring Ymax greater than 50.0 and less than or equal to 100.0)”.
In the case of `CCN1C(=O)[C@@H](NC(=O)c2cccc(C(F)(F)F)c2)[C@@H](c2ccc(F)cc2)c2c([C@@H](C)NC#N)nn(-c3ccccc3)c21` [Compound I-73, N-((4S,5S)-3-((R)-1-cyanamidoethyl)-7-ethyl-4-(4-fluorophenyl)-6-oxo-1-phenyl-4,5,6,7-tetrahydro-1H-pyrazolo[3,4-b]pyridin-5-yl)-3-(trifluoromethyl)benzamide], the 50% effective concentration (EC50) in test [1] (Homo sapiens, 240 h) was no more than 100 nM. For the same compound, the “Nanostring Ymax obs (%)” value in test [1] is “++ (Nanostring Ymax greater than 50.0 and less than or equal to 100.0)”. Further, the IC50 in test [2] (setting [3]) and in test [2] (setting [4]) was no more than 200 nM each time.
`CCN1C(=O)[C@@H](NC(=O)c2cccc(C(F)(F)F)c2)[C@@H](C2CC2)c2c(C(=O)N3CCS(=O)(=O)C[C@H]3C#N)nn(C3CCOCC3)c21` (mixture of isomers) [Compound I-379] returned a concentration giving a half-maximal response (EC50) in test [1] (Homo sapiens, 240 h) of no more than 100 nM. In addition, in test [1], the “Nanostring Ymax obs (%)” value is reported as “+++ (Nanostring Ymax greater than 100.0)”. The IC50 in test [2] (setting [3]) and in test [2] (setting [4]) was no more than 200 nM in each case.
Turning to `CCN1C(=O)[C@@H](NC(=O)c2cccc(C(F)(F)F)c2)[C@@H](c2ccc(F)cc2)c2c(C(=O)NC3(C#N)CC3)nn(-c3ccccc3)c21` [Compound I-112], the EC50 in test [1] (Homo sapiens, 240 h) lay in the range of 100 to 1000 nM. For the same compound, the “Nanostring Ymax obs (%)” value in test [1] was “+++ (Nanostring Ymax greater than 100.0)”. For the same compound, the IC50 in test [2] (setting [3]) lay within 200 to 1000 nM; in test [2] (setting [5]) it was 1000 to 3000 nM.
For `CCN1C(=O)[C@@H](NC(=O)c2cccc(C(F)(F)F)c2)[C@@H](C2CCC2)c2c(C(=O)N3CCC[C@H]3C#N)nn(C3CCOCC3)c21` [Compound I-692], in that order: no more than 100 nM, “+++ (Nanostring Ymax greater than 100.0)”, no more than 200 nM and 200 to 1000 nM.
In test [1] (Homo sapiens, 240 h), `CCN1C(=O)[C@@H](NC(=O)c2cccc(C(F)(F)F)c2)[C@@H](C2CC2)c2c(C(=O)N3[C@H](C#N)C[C@H]4C[C@H]43)nn(C3CCOCC3)c21` [Compound I-256, N-((4S,5S)-3-((1R,3S,5R)-3-cyano-2-azabicyclo[3.1.0]hexane-2-carbonyl)-4-cyclopropyl-7-ethyl-6-oxo-1-(tetrahydro-2H-pyran-4-yl)-4,5,6,7-tetrahydro-1H-pyrazolo[3,4-b]pyridin-5-yl)-3-(trifluoromethyl)benzamide] displayed an EC50 of no more than 100 nM. For the same compound, the “Nanostring Ymax obs (%)” value in test [1] is “+++ (Nanostring Ymax greater than 100.0)”. The IC50 in test [2] (setting [3]) and in test [2] (setting [4]) was no more than 200 nM each time.
As for `CCN1C(=O)[C@@H](NC(=O)c2cccc(C(F)(F)F)c2)[C@@H](C2CC2)c2c(C(=O)N(C)[C@H](C)C#N)nn(C3CCOCC3)c21` [Compound I-422], the EC50 in test [1] (Homo sapiens, 240 h) was in the range of 100 to 1000 nM. The “Nanostring Ymax obs (%)” value in test [1] was “+++ (Nanostring Ymax greater than 100.0)”. The IC50 in test [2] (setting [3]) and in test [2] (setting [4]) was no more than 200 nM each time.
Compound `CCN1C(=O)[C@@H](NC(=O)c2cccc(C(F)(F)F)c2)[C@@H](c2ccc(F)cc2)c2c(C(=O)N3[C@H](C#N)C[C@H]4C[C@H]43)nn(-c3ccccc3)c21` [Compound I-277] registered an EC50 in test [1] (Homo sapiens, 240 h) of no more than 100 nM. Further, in test [1], the “Nanostring Ymax obs (%)” value was “+++ (Nanostring Ymax greater than 100.0)”. The IC50 in test [2] (setting [3]) and in test [2] (setting [4]) was no more than 200 nM throughout.
For `CCN1C(=O)[C@@H](NC(=O)c2cccc(C(F)(F)F)c2)[C@@H](C2CC2)c2c(C(=O)N3CCNC[C@H]3C#N)nn(-c3ccccc3)c21` [Compound I-383], in test [1] (Homo sapiens, 240 h), the EC50 was no more than 100 nM. In addition, in test [1], the “Nanostring Ymax obs (%)” value was “++ (Nanostring Ymax greater than 50.0 and less than or equal to 100.0)”. Moreover, the IC50 in test [2] (setting [3]) and in test [2] (setting [4]) was no more than 200 nM in each case.
As for `CCN1C(=O)[C@@H](NC(=O)c2cccc(C(F)(F)F)c2)[C@@H](c2ccc(F)cc2)c2c(C(=O)N(C)[C@@H](C#N)CCN(C)C)nn(C3CCOCC3)c21` [Compound I-369], the EC50 in test [1] (Homo sapiens, 240 h) is no more than 100 nM. Further, the “Nanostring Ymax obs (%)” value in test [1] was “+++ (Nanostring Ymax greater than 100.0)”. In addition, the 50% inhibitory concentration (IC50) in test [2] (setting [3]) and in test [2] (setting [4]) was no more than 200 nM in each case.
Consider `C=C(CN1CCC1)C(=O)NCc1nn(-c2ccccc2)c2c1[C@@H](c1ccc(F)cc1)[C@H](NC(=O)c1cccc(C(F)(F)F)c1)C(=O)N2CC` [Compound I-139], for which the “Nanostring Ymax obs (%)” value in test [1] is “++ (Nanostring Ymax greater than 50.0 and less than or equal to 100.0)”. For the same compound, the IC50 in test [2] (setting [3]) and in test [2] (setting [4]) was no more than 200 nM each time.
`CCN1C(=O)[C@@H](NC(=O)c2cccc(C(F)(F)F)c2)[C@@H](c2ccc(F)cc2)c2c(C(=O)N3CCNCC3C#N)nn(C3CCOCC3)c21` (some centres unmarked) [Compound I-334] displayed an EC50 in test [1] (Homo sapiens, 240 h) of no more than 100 nM. Also, the “Nanostring Ymax obs (%)” value in test [1] was “+++ (Nanostring Ymax greater than 100.0)”. The IC50 in test [2] (setting [3]) and in test [2] (setting [4]) was no more than 200 nM in each case.
Consider `CCN1C(=O)[C@@H](NC(=O)c2cccc(C(F)(F)F)c2)[C@@H](C)c2c(C(=O)N3[C@H](C#N)C[C@H]4C[C@H]43)nn(C3CCOCC3)c21` [Compound I-387], for which, in test [1], the EC50 was no more than 100 nM and the “Nanostring Ymax obs (%)” value is listed as “+++ (Nanostring Ymax greater than 100.0)”.
